Test results as given in ChEMBL document CHEMBL3045960 (Pest Manag Sci, 2011).
≈ marks a conversion by molar mass, not a printed value.

Tested on: Fusarium graminearum
Experiment: Fungicidal activity against Fusarium graminearum 2021 assessed as mycelial growth inhibition after 3 days
Format: functional, organism-based
Settings: Fusarium graminearum, 2021, 72 h

Compared with CCCCNC(=O)n1c(NC(=O)OC)nc2ccccc21 [BENOMYL], COC(=O)NC(=S)Nc1ccccc1NC(=S)NC(=O)OC [THIOPHANATE METHYL] is 18-fold higher in EC50: 0.61 µg/mL (≈ 2.1 µM) for the first, 11 µg/mL (≈ 32.2 µM) for the second.

Compound c1ccc2[nH]c(-c3cscn3)nc2c1 [THIABENDAZOLE] has an EC50 of 1.13 µg/mL (≈ 5.61 µM).
